{"source": "ChEMBL document CHEMBL4680201", "about": "“Design, synthesis, and pharmacological evaluation of 4- or 6-phenyl-pyrimidine derivatives as novel and selective Janus kinase 3 inhibitors” (Eur J Med Chem, 2020)", "key": {"[1]": {"experiment": "Toxicity in Balb/c mouse model of oxazolone-induced delayed type hypersensitivity assessed as change in body weight up to 30 mg/kg, po", "format": "organism-based", "conditions": "in vivo"}, "[2]": {"biological_target": "T1, Tyrosine-protein kinase JAK3 (Homo sapiens) (UniProt P52333)", "T1 sequence (whole entry)": "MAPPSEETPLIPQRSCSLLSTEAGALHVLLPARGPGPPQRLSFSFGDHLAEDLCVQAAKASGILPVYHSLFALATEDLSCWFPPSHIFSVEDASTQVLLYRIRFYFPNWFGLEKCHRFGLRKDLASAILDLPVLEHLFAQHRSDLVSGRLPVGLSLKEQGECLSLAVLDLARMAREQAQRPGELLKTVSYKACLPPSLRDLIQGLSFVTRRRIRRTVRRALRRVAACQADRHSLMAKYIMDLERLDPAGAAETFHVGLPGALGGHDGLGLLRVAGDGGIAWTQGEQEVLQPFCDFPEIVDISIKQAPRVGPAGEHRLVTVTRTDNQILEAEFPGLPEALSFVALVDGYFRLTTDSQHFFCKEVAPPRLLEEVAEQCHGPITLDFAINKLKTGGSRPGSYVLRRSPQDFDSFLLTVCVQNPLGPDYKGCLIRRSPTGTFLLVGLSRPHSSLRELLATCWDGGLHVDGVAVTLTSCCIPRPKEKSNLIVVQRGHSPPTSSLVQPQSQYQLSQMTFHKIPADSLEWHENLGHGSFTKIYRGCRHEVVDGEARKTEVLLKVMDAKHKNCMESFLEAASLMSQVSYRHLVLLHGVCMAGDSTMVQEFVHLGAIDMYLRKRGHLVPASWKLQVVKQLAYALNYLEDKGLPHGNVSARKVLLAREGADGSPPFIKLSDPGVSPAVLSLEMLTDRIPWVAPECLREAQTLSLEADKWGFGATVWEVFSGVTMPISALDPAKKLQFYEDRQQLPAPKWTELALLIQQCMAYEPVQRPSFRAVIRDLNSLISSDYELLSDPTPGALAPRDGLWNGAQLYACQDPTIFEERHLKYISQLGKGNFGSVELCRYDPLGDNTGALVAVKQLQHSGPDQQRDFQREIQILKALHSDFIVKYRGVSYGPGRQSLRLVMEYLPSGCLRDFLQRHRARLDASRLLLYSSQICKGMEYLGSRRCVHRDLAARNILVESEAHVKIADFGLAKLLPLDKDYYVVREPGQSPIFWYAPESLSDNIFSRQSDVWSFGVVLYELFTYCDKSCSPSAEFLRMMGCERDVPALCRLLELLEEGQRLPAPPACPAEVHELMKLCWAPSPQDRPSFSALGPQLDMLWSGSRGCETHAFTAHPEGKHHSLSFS"}, "[3]": {"biological_target": "T1, Tyrosine-protein kinase JAK3 (Homo sapiens)", "experiment": "Irreversible inhibition of recombinant human GST-tagged JAK3 cytoplasmic domain (781 to 1124 residues) expressed in baculovirus expression system at IC90 using TK-substrate-biotin preincubated for 30 mins followed by 1000 fold dilution and measured after 24 hrs by HTRF assay", "conditions": "time 24.5 hrs"}, "[4]": {"biological_target": "Tyrosine-protein kinase JAK1 (Homo sapiens, UniProt P23458)", "experiment": "Inhibition of recombinant human GST-tagged JAK1 cytoplasmic domain (866 to 1154 residues) expressed in baculovirus expression system using TK-substrate-biotin preincubated for 5 mins followed by substrate addition and measured after 30 mins by HTRF assay"}, "[5]": {"biological_target": "ERBB4 (Receptor tyrosine-protein kinase erbB-4) (Homo sapiens, UniProt Q15303)", "sequence (Q15303 whole entry, the tested form may be a part)": "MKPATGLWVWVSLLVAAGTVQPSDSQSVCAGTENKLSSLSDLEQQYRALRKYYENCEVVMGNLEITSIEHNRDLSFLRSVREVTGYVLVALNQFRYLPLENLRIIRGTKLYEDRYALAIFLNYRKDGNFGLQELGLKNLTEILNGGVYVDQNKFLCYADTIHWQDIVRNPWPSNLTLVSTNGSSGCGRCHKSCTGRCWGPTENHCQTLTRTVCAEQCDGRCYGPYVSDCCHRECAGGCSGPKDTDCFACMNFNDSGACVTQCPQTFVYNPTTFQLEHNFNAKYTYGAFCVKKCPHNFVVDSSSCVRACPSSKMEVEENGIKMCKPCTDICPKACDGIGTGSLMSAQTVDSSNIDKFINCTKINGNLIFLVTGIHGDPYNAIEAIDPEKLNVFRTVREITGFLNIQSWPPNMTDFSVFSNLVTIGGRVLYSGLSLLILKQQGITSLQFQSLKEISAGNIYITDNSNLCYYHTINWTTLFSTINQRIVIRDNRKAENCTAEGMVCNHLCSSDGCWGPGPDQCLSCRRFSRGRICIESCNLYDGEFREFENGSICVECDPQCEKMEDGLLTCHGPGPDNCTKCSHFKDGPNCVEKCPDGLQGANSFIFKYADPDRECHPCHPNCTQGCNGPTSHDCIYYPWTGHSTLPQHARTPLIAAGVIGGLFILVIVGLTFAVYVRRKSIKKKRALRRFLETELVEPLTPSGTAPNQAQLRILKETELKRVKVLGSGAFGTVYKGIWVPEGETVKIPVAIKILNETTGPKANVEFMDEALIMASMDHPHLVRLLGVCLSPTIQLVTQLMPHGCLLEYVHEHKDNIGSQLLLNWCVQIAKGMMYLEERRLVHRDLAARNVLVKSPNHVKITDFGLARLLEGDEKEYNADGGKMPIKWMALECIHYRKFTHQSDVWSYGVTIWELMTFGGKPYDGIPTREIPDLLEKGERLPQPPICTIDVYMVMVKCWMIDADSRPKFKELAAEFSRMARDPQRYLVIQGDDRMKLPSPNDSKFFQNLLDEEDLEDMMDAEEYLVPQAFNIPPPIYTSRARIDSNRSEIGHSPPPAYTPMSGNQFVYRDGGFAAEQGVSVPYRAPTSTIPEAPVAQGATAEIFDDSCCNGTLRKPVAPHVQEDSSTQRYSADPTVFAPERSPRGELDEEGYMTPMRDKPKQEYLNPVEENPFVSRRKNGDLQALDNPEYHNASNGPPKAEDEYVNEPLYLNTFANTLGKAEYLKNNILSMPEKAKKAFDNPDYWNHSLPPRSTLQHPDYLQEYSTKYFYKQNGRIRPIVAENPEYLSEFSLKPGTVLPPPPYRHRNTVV", "experiment": "Inhibition of recombinant human N-terminal GST-tagged ERBB4 catalytic domain (708 to 993 residues) expressed in baculovirus expression system at 100 nM using tyrosine-1 peptide as substrate incubated for 60 mins in presence of ATP by Z'-LYTE assay relative to control", "conditions": "probe tyrosine-1 peptide"}, "[6]": {"experiment": "AUC (0 to infinity) in ICR mouse at 30 mg/kg, po administered as single dose via gavage by LC-MS/MS analysis", "format": "ADME, organism-based", "set-up": "time infinity, route oral, dose 30 mg/kg", "conditions": "in vivo"}, "[7]": {"experiment": "Terminal half life in ICR mouse at 30 mg/kg, po administered as single dose via gavage by LC-MS/MS analysis", "format": "ADME, organism-based", "conditions": "in vivo, read-out: beta t1/2 (converted)"}, "[8]": {"biological_target": "Non-receptor tyrosine-protein kinase TYK2 (Homo sapiens, UniProt P29597)", "sequence (P29597 whole entry, the tested form may be a part)": "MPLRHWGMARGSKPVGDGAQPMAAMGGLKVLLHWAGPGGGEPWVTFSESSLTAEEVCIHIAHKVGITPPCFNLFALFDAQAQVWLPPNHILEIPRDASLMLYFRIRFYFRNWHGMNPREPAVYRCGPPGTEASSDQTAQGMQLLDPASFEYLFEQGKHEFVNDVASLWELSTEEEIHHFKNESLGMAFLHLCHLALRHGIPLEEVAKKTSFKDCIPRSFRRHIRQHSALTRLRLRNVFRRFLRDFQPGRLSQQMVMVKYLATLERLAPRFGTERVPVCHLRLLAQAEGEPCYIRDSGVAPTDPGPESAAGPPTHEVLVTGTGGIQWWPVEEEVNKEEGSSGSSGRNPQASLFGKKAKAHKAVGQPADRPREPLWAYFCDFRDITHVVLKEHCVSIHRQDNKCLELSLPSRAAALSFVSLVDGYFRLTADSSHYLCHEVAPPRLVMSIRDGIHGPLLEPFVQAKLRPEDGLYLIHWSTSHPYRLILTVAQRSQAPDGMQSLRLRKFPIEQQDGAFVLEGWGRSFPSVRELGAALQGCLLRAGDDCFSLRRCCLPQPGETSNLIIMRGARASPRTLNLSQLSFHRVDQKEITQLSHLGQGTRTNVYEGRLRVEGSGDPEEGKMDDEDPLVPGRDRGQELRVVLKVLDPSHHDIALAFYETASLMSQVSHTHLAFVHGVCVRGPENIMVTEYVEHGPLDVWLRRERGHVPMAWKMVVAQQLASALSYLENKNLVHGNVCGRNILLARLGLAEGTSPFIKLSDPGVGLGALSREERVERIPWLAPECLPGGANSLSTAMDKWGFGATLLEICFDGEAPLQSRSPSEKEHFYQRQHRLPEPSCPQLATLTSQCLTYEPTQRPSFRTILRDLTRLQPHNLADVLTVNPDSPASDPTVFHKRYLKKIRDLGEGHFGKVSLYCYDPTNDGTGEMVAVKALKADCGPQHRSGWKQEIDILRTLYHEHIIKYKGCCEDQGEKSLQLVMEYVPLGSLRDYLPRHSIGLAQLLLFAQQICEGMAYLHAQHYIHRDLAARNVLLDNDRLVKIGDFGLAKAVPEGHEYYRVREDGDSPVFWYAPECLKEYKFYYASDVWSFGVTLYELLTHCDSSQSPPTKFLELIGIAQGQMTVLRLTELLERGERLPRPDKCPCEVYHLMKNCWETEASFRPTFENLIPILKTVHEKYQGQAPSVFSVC", "experiment": "Inhibition of recombinant human N-terminal GST-tagged TYK2 cytoplasmic domain (833 to 1187 residues) expressed in baculovirus expression system using TK-substrate-biotin preincubated for 5 mins followed by substrate addition and measured after 30 mins by HTRF assay"}, "[9]": {"biological_target": "Tyrosine-protein kinase JAK2 (Homo sapiens, UniProt O60674)", "sequence (O60674 whole entry)": "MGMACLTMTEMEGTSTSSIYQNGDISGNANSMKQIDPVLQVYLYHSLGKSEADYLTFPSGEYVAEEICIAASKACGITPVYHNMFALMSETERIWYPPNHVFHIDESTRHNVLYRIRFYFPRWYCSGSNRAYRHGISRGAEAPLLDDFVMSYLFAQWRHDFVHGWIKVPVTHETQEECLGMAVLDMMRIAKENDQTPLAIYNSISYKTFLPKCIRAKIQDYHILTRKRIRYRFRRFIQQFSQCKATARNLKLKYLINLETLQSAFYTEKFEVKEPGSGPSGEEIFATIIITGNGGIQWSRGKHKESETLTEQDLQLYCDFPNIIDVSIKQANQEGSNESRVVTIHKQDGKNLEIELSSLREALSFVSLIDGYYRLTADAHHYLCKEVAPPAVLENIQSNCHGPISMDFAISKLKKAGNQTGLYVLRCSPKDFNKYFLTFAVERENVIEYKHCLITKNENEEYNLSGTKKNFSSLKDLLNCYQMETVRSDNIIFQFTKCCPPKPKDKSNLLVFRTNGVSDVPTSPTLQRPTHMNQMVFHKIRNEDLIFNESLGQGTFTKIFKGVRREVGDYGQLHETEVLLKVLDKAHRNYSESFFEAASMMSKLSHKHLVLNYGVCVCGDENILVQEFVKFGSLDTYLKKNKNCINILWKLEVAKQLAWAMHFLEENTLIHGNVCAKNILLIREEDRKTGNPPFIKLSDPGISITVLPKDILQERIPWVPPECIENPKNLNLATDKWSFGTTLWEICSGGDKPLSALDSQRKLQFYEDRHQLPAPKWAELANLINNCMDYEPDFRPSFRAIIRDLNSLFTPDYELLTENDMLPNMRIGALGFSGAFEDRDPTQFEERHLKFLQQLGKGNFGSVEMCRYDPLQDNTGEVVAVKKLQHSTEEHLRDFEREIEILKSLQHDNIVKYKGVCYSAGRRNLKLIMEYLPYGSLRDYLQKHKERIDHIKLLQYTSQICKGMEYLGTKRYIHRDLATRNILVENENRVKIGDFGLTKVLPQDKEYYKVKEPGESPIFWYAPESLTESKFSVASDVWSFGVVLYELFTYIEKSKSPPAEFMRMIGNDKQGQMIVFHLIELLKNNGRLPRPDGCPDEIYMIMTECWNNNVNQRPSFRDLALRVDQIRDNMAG", "format": "ADME"}, "[10]": {"experiment": "Apparent volume of distribution in ICR mouse at 30 mg/kg, po administered as single dose via gavage by LC-MS/MS analysis", "format": "ADME, organism-based", "conditions": "in vivo"}, "[11]": {"experiment": "AUC (0 to t) in ICR mouse at 10 mg/kg, iv administered as single dose by LC-MS/MS analysis", "format": "ADME, organism-based", "set-up": "dose 10 mg/kg", "conditions": "in vivo"}, "[12]": {"biological_target": "TEK (Angiopoietin-1 receptor) (Homo sapiens, UniProt Q02763)", "sequence (Q02763 whole entry, the tested form may be a part)": "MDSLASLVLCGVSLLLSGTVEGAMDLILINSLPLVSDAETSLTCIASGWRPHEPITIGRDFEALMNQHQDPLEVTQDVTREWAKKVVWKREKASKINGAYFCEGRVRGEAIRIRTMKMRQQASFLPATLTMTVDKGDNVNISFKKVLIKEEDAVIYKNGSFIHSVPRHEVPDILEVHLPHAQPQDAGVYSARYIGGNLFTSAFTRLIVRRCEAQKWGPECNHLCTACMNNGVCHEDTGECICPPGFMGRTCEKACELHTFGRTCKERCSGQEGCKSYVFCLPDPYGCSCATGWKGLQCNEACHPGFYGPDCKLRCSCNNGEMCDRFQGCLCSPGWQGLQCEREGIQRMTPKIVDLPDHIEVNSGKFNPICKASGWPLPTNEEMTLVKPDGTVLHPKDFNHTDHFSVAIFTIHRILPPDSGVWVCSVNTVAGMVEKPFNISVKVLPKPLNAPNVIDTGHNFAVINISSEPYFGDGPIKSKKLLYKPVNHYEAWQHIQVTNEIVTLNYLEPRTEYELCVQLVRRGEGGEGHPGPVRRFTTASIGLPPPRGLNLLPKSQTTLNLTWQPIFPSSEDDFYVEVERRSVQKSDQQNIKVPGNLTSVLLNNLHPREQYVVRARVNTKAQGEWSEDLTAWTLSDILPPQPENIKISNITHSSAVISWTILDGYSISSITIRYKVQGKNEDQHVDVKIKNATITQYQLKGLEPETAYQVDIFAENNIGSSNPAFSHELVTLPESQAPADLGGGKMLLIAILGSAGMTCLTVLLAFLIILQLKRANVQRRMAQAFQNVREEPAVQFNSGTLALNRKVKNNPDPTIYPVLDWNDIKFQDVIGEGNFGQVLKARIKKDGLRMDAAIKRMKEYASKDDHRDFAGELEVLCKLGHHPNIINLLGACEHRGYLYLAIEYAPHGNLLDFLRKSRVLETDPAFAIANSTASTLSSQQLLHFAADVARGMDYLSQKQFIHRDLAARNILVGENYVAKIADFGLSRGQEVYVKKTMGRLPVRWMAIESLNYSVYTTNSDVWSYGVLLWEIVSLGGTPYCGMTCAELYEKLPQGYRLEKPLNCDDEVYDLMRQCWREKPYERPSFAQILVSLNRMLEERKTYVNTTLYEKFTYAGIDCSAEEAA", "experiment": "Inhibition of recombinant human GST-tagged TEK (817 to 1101 residues) expressed in baculovirus expression system at 100 nM using Tyr 05 as substrate incubated for 1 hr in presence of ATP by Z'-LYTE assay relative to control", "conditions": "probe Tyr 05"}}, "note": "The source made the active and inactive calls. No cut-off for these calls is given here.", "data": [{"compound": "C=CC(=O)Nc1ccc(-c2ccnc(Nc3ccc(N4CCOCC4)cc3)n2)cc1", "values": [{"measurement": "Activity", "setting": "[1]", "value": "Non-Toxic"}, {"measurement": "TDI", "setting": "[2]", "value": "Active"}, {"measurement": "inhibition", "setting": "[3]", "value": "Active"}, {"measurement": "IC50", "setting": "[4]", "value": 1320, "unit": "nM"}, {"measurement": "inhibition at 1 h, 0.1 µM", "setting": "[5]", "value": 8, "unit": "%"}, {"measurement": "AUC", "setting": "[6]", "value": 897.12, "unit": "ng·h/mL"}, {"measurement": "half-life", "setting": "[7]", "value": 1.52, "unit": "h"}, {"measurement": "IC50", "setting": "[8]", "value": 2780, "unit": "nM"}, {"measurement": "IC50", "setting": "[9]", "value": 1000, "unit": "nM"}, {"measurement": "Vz", "setting": "[10]", "value": 220.42, "unit": "L/kg"}, {"measurement": "AUC(0-t)", "setting": "[11]", "value": 1240, "unit": "ng·h/mL"}, {"measurement": "inhibition at 1 h, 0.1 µM", "setting": "[12]", "value": 29.5, "unit": "%"}]}]}
